The experiment addresses Dynamin-1-like protein (Homo sapiens, UniProt O00429). The experiment can be described thus: Inhibition of DRP1 (unknown origin) using GTP as substrate incubated for 20 mins by malachite green reagent based colorimetric assay.

In ChEMBL document CHEMBL4418318, “Dynamin-1-like protein inhibitors” (2018) one finds IC50 data, which are given here for one compound.

Chain of Dynamin-1-like protein (O00429 whole entry): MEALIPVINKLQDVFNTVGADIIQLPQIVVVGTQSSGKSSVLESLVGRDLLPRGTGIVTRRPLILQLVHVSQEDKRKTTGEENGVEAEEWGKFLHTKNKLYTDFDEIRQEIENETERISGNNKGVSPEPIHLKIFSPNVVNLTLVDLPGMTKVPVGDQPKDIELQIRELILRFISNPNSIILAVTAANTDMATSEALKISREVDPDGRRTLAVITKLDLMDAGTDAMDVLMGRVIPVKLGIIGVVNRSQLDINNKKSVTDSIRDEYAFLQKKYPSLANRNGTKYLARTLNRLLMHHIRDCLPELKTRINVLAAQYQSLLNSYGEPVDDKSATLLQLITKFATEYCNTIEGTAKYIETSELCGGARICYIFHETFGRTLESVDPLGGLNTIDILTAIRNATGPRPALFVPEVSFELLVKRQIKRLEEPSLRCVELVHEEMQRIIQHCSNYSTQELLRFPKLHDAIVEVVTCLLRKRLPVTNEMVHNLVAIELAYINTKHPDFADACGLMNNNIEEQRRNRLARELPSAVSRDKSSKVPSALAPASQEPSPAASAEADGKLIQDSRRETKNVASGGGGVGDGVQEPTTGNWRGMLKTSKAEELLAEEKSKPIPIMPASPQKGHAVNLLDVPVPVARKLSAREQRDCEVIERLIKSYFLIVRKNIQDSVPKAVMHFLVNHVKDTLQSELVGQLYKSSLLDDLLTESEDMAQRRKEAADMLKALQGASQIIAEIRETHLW

Regarding `O=C(O)c1ccc(NC(=O)c2cc(Br)cn2Cc2csc(N3CCCCC3)n2)cc1`, the IC50 was > 100 µM.

For orientation: IC50 means the concentration needed to halve the response being measured. A higher IC50 goes with a need for much substance.
